Experiments:
Botrytis cinerea = assay: Comparison with the prior art: C1 activity against gray mold pathogen in the microtiter test; assay type: cell-based; settings: day 7 after inoculation, 405 nm
Phakopsora pachyrhizi = assay: Curative activity against soybean rust (greenhouse, Example G1); assay type: in vivo; settings: soybean seedlings, curative spray 300 ppm two days after inoculation, assessed after further 10 days; untreated 90% infected
Method: The active compounds were prepared separately as a stock solution comprising 25 mg of active compound which was made up to 10 ml using a mixture of acetone and/or DMSO and the emulsifier Uniperol® EL (wetting agent having emulsifying and dispersing action based on ethoxylated alkylphenols) in a volume ratio of solvent/emulsifier of 99/1. The mixture was then made up to 100 ml with water. This stock solution was diluted with the solvent/emulsifier/water mixture described to the active compound concentration stated below. Alternatively, the active compounds were used as commercially finished formulation and diluted with water to the stated active compound concentration.
Curative activity against soybean rust caused by Phakopsora pachyrhizi Leaves of potted soybean seedlings were inoculated with a spore suspension of soybean rust (Phakopsora pachyrhizi). The pots were then placed in a chamber with high atmospheric humidity (90 to 95%) and at 23 to 27° C. for 24 hours. During this time, the spores germinated and the germ tubes penetrated into the leaf tissue. The infected plants were then cultivated further in a greenhouse at temperatures between 23 and 27° C. and 60 to 80% relative atmospheric humidity. […] The extent of the rust fungus development on the leaves was then determined visually in % infection.

CC(C)(C)C(O)C(C/C=C/c1ccccc1F)n1cncn1 (stereo not drawn)
Growth (%) at 8 ppm C1 (Botrytis cinerea): 16%

CC(=CCC(C(O)C(C)(C)C)n1cncn1)c1ccc(F)cc1F (mixture of isomers) [I.A9]
rust fungus development on the leaves in % infection (Phakopsora pachyrhizi): 0%

CC(C)(C)C(O)C(C/C=C/c1ccccc1)n1cncn1 (stereo not drawn) [reference compound]
Growth (%) at 8 ppm C1 (Botrytis cinerea): 84%
